In patent US20190135834A1, “5-SUBSTITUTED AZABENZIMIDAZOLE DERIVATIVE HAVING ???? ACTIVATION ACTION” (Shionogi & Co., Ltd., priority 2016, published 2019):

Target: T1, Human AMPK α2ß2γ1 (Homo sapiens, UniProt O43741+P54646)
T1 construct: The full length cDNAs of human AMPK ß2 (NM_005399.3) and human AMPK α2 (NM_006252.3); The full length cDNAs of human AMPK ß2 (NM_005399.3); 6xHis (N); made in house; host or cells: Escherichia coli BL21 CodonPlus (DE3)-RIL
Experiment: Test Example 2: evaluation of an activator for AMP-activated protein kinase (AMPK), LabChip mobility shift assay with CaMKK2-phosphorylated enzyme
Type: biochemical
Conditions: for EC150 (compound concentration showing 150% relative to the control (100%)): FL-Peptide 7 substrate, 25° C., 2 hours; for Emax: read-out: Emax (maximum rate of increase in activity within the measurement range)
Procedure: The full length cDNAs of human AMPK ß2 (NM_005399.3) and human AMPK α2 (NM_006252.3) were inserted into the MCS1 and MCS2 of the pETDuet-1 vector to prepare a human AMPK ß2 and human AMPK α2 (6× His tag at the 5′ terminus) expressing plasmid. The plasmid was cotransfected with an expression plasmid, in which the full length cDNA of human AMPK γ1 (NM_002733.3) had been inserted into pET28b(+), into BL21 CodonPlus (DE3)-RIL to obtain an expression strain. The expression strain was cultured in TB medium, followed by induction with 0.5 mM IPTG, and cultured at 25° C. for 3 hours and then harvested. After ultrasonication, supernatant was collected and applied to Histrap FF column (GE) and RESOURCE Q column (GE) to prepare 12.5 mg of purified sample containing three types of subunit from 1.8 L of broth.
Preparation method of human CaMKK2 used to impart activity to AMPK An expression vector, in which the full length cDNA of human CAMKK ß (NM_172226.1) had been inserted into pGEX-6P-3, was transfected into BL21 Star (DE3). The expression strain was cultured in TB medium, followed by induction with 0.5 mM IPTG, and cultured at 25° C. for 3 hours and then harvested. After ultrasonication, supernatant was collected and applied to GSTrap FF column (GE) to prepare 14 mg of GST-fused CAMKK ß from 720 ml of broth.
Thus, phosphorylation treatment was carried out as pretreatment.
Human AMPK α2ß2γ1 in an amount to give a conversion rate of approximately 10% by reaction for 2 hours, and CaMKK2 in an amount capable of sufficiently imparting activity to AMPK for one hour were mixed in a buffer solution consisting of a 50 mM HEPES-NaOH buffer solution (pH 7.0), 100 mM NaCl, 5 mM magnesium chloride, 0.1% bovine serum albumin, 0.2 mM sodium orthovanadate(V), 1 mM ethylene glycol-bis(2-aminoethyl ether)-N,N,N′,N′-tetraacetic acid (EGTA), 5 mM disodium ß-glycerophosphate, 1 mM dithiothreitol and 0.2 mM ATP, and the resulting liquid was left to stand at 25° C. for 1 to 1.5 hours to sufficiently phosphorylate AMPK.
After that, to the enzyme liquid, which had been subjected to phosphorylation treatment, a compound dissolved in DMSO was added so as to have a 1% DMSO concentration. The resulting liquid was left to stand for 10 minutes.
To the liquid, a substrate solution consisting of a 50 mM HEPES-NaOH buffer solution (pH 7.0), 100 mM NaCl, 10 mM magnesium chloride, 0.1% bovine serum albumin, 0.2 mM sodium orthovanadate(V), 1 mM ethylene glycol-bis(2-aminoethyl ether)-N,N,N′,N′-tetraacetic acid (EGTA), 5 mM disodium ß-glycerophosphate, 2 mM dithiothreitol, 0.4 mM ATP and 3 μM FL-Peptide 7 (manufactured by Caliper Life Sciences, Inc.) was added in equal amount (10 μl in total). The resulting liquid was allowed to react at 25° C. for 2 hours, and 10 μl of 20 mM EDTA was added thereto to stop the reaction.
To detect phosphorylated fluorescent substrates, the reaction mixture was applied to a measuring device, LabChip EZ Reader II manufactured by Caliper Life Science, Inc., for detecting fluorescence by using differences in mobility due to differences in charge. The setting conditions for the device were pressure, −1.5 PSI; upstream voltage, −2250 V; downstream voltage, −400 V; post sample buffer sip time, 40 seconds; final delay, 120 seconds; and peak order, Product First.
A conversion rate was calculated from the peak heights of the obtained substrate and product. The conversion rate when not containing a compound was used as a control, and a concentration dependent curve was made by plotting the rate of increase in activity to the control at each concentration of a compound.

T1 sequence (P54646 whole entry): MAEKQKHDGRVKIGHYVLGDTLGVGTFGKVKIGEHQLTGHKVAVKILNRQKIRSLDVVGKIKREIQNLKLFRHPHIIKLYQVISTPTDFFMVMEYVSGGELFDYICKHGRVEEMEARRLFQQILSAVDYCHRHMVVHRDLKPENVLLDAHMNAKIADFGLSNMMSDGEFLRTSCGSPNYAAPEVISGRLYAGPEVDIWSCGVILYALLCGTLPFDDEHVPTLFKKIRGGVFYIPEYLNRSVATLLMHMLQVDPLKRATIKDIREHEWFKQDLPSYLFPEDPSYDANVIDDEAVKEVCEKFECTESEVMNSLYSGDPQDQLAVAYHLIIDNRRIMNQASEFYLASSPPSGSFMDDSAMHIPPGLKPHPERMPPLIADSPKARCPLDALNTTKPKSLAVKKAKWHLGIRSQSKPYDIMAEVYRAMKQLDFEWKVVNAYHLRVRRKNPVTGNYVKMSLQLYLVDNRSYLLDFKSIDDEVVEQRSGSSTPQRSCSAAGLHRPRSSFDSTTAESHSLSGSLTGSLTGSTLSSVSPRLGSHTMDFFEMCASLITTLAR
T1 sequence (O43741 whole entry): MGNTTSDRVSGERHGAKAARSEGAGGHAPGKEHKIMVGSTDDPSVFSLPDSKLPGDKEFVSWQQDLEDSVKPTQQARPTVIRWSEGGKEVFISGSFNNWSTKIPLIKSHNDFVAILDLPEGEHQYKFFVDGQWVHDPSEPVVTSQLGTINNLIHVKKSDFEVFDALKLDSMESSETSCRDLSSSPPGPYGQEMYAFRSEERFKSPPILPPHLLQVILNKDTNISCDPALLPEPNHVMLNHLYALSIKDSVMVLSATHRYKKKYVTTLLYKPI
T1 sequence (P54619 whole entry partner): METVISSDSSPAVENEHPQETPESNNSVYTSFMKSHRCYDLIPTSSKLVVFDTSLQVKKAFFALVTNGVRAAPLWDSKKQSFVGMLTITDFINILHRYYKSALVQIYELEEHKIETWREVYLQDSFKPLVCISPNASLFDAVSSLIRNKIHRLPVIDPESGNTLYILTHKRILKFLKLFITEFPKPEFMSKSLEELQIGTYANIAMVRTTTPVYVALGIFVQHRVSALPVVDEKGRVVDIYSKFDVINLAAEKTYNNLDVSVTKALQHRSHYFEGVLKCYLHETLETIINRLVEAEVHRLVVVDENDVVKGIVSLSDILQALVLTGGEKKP

| Compound | EC150 (compound concentration showing 150% relative to the control (100%)) [nM] | Emax (relative to control (100%)) [%] | Emax (maximum rate of increase in activity within the measurement range) (relative to control (100%)) [%] |
| --- | --- | --- | --- |
| Cn1cc(-c2cc(F)c3c(c2)CCC3Oc2nc3nc(O[C@@H]4CO[C@H]5[C@@H]4OC[C@H]5O)[nH]c3cc2Cl)cn1 (single isomer, unassigned) [Compound I-1-20] | 4.3 | 403 |  |
| O[C@@H]1CO[C@H]2[C@@H]1OC[C@H]2Oc1nc2nc(NC3CCc4cc(OC5CC6(COC6)C5)cc(F)c43)c(Cl)cc2[nH]1 (stereo partly shown) [Compound I-2-60] | 6.7 | 634 |  |
| CCOCCOc1cc(F)c2c(c1)CC[C@@H]2Nc1nc2nc(O[C@@H]3CO[C@H]4[C@@H]3OC[C@H]4O)[nH]c2cc1Cl [Compound I-1-95] | 1.3 | 424 |  |
| CCOc1cc(F)c2c(c1)CCC2Nc1nc2nc(O[C@@H]3CO[C@H]4[C@@H]3OC[C@H]4O)[nH]c2cc1Cl (stereo partly shown) [Compound I-1-90] | 11 | 382 |  |
| O[C@@H]1CO[C@H]2[C@@H]1OC[C@H]2Oc1nc2nc(N[C@H]3CCc4cc(/C=C/COC5CCCCO5)cc(F)c43)c(Cl)cc2[nH]1 (stereo partly shown) [Compound I-2-39] | 11 | 583 |  |
| C/C=C/c1cc(F)c2c(c1)CCC2Oc1nc2nc(O[C@@H]3CO[C@H]4[C@@H]3OC[C@H]4O)[nH]c2cc1Cl (stereo partly shown) [Compound I-1-72] | 13 | 375 |  |
| NC(=O)COc1cnc2c(c1)CCC2Nc1nc2nc(O[C@@H]3CO[C@H]4[C@@H]3OC[C@H]4O)[nH]c2cc1Cl (stereo partly shown) [Compound I-1-47] | 14 | 390 |  |
| O[C@@H]1CO[C@H]2[C@@H]1OC[C@H]2Oc1nc2nc(NC3CCc4cc(OCCN5CCOCC5)cc(F)c43)c(Cl)cc2[nH]1 (stereo partly shown) [Compound I-1-96] | 3.6 | 430 |  |
| Cn1cc(-c2cc(F)c3c(c2)CC[C@@H]3Nc2nc3nc(O[C@@H]4CO[C@H]5[C@@H]4OC[C@H]5O)[nH]c3cc2Cl)cc(F)c1=O [Compound I-2-68] | 1.8 | 600 |  |
| O[C@@H]1CO[C@H]2[C@@H]1OC[C@H]2Oc1nc2nc(NC3CCc4cc(Br)cnc43)c(Cl)cc2[nH]1 (stereo partly shown) [Compound I-1-4] | 11 | 547 |  |
| O[C@@H]1CO[C@H]2[C@@H]1OC[C@H]2Oc1nc2nc(NC3CCc4cc(OCCN5CCCCC5)cc(F)c43)c(Cl)cc2[nH]1 (stereo partly shown) [Compound I-1-38] | 8 | 392 |  |
| COCC(=O)Nc1cc(F)c2c(c1)CCC2Nc1nc2nc(O[C@@H]3CO[C@H]4[C@@H]3OC[C@H]4O)[nH]c2cc1Cl (stereo partly shown) [Compound I-1-105] | 4.1 | 434 |  |
| O=C1CCCN1CCOc1cc(F)c2c(c1)CCC2Nc1nc2nc(O[C@@H]3CO[C@H]4[C@@H]3OC[C@H]4O)[nH]c2cc1Cl (stereo partly shown) [Compound I-1-79] | 4.2 |  | 385 |
| CC(C)(O)COc1cc(F)c2c(c1)CCC2Nc1nc2nc(O[C@@H]3CO[C@H]4[C@@H]3OC[C@H]4O)[nH]c2cc1Cl (stereo partly shown) [Compound I-2-09] | 3.9 | 633 |  |
| N#CCn1cc(-c2cc(F)c3c(c2)CC[C@@H]3Nc2nc3nc(O[C@@H]4CO[C@H]5[C@@H]4OC[C@H]5O)[nH]c3cc2Cl)cn1 [Compound I-2-78] | 2.5 | 692 |  |
| O[C@@H]1CO[C@H]2[C@@H]1OC[C@H]2Oc1nc2nc(N[C@H]3CCc4cc(-c5cnc(C(F)(F)F)nc5)cc(F)c43)c(Cl)cc2[nH]1 [Compound I-2-64] | 9.3 | 676 |  |
| O[C@@H]1CO[C@H]2[C@@H]1OC[C@H]2Oc1nc2nc(N[C@H]3CCc4cc(O[C@H]5CC[C@@H](O)CC5)cc(F)c43)c(Cl)cc2[nH]1 [Compound I-2-01] | 1.8 | 646 |  |
| Cc1ncc(-c2cc(F)c3c(c2)CC[C@@H]3Nc2nc3nc(O[C@@H]4CO[C@H]5[C@@H]4OC[C@H]5O)[nH]c3cc2Cl)cn1 [Compound I-2-46] | 3.3 | 708 |  |
| O[C@@H]1CO[C@H]2[C@@H]1OC[C@H]2Oc1nc2nc(N[C@H]3CCc4cc(C5=CCOC5)cc(F)c43)c(Cl)cc2[nH]1 [Compound I-2-47] | 2.3 | 724 |  |
| COCCCOc1cc(F)c2c(c1)CCC2Nc1nc2nc(O[C@@H]3CO[C@H]4[C@@H]3OC[C@H]4O)[nH]c2cc1Cl (stereo partly shown) [Compound I-2-52] | 3.7 | 629 |  |
| O[C@@H]1CO[C@H]2[C@@H]1OC[C@H]2Oc1nc2nc(NC3CCc4cc(OCCOCC(F)(F)F)cc(F)c43)c(Cl)cc2[nH]1 (stereo partly shown) [Compound I-2-05] | 6 | 680 |  |
| N#Cc1cc(F)c2c(c1)CC[C@@H]2Nc1nc2nc(O[C@@H]3CO[C@H]4[C@@H]3OC[C@H]4O)[nH]c2cc1Cl [Compound I-2-10] | 3.4 | 642 |  |
| CC(C)(O)/C=C/c1cc(F)c2c(c1)CCC2Nc1nc2nc(O[C@@H]3CO[C@H]4[C@@H]3OC[C@H]4O)[nH]c2cc1Cl (stereo partly shown) [Compound I-2-37] | 3.2 | 645 |  |
| O[C@@H]1CO[C@H]2[C@@H]1OC[C@H]2Oc1nc2nc(NC3CCc4cc(-c5ccccc5)cnc43)c(Cl)cc2[nH]1 (stereo partly shown) [Compound I-1-46] | 54 | 381 |  |
| CCOC/C=C/c1cc(F)c2c(c1)CC[C@@H]2Nc1nc2nc(O[C@@H]3CO[C@H]4[C@@H]3OC[C@H]4O)[nH]c2cc1Cl [Compound I-2-07] | 2 | 727 |  |
| Cn1cc(-c2cc(F)c3c(c2)CCC3Nc2nc3nc(O[C@@H]4CO[C@H]5[C@@H]4OC[C@H]5O)[nH]c3cc2Cl)cn1 (stereo partly shown) [Compound I-1-44] | 5.6 | 422 |  |
| COCCOc1cnc2c(c1)CCC2Nc1nc2nc(O[C@@H]3CO[C@H]4[C@@H]3OC[C@H]4O)[nH]c2cc1Cl (stereo partly shown) [Compound I-1-11] | 9.8 | 606 |  |
| Cn1ccc(-c2cc(F)c3c(c2)CC[C@@H]3Nc2nc3nc(O[C@@H]4CO[C@H]5[C@@H]4OC[C@H]5O)[nH]c3cc2Cl)n1 [Compound I-2-70] | 5.2 | 583 |  |
| O[C@@H]1CO[C@H]2[C@@H]1OC[C@H]2Oc1nc2nc(NC3CCc4cc(OC5CCNCC5)cc(F)c43)c(Cl)cc2[nH]1 (stereo partly shown) [Compound I-1-93] | 4 | 444 |  |
